In publication PMC12169610 (Journal of Medicinal Chemistry, 2025):
Where two headings read alike, the source gives them in different places. Marks after values point to notes of the source that are not given here.

What was measured:
P-gp = experiment: in vitro; assay type: in vitro ADME; settings: pig, LLC-PK1
fasted rat = experiment: Acute refeeding assay; assay type: in vivo; settings: for Inhibition of Food Intake at 1 h (%), 5 mg/kg dose: 5 mg/kg PO
[1] = predicted from PK data across species
5-HT2CR = molecular target: T1, 5-HT2CR (Homo sapiens, UniProt P28335); assay type: binding
T1 sequence (P28335 33-458): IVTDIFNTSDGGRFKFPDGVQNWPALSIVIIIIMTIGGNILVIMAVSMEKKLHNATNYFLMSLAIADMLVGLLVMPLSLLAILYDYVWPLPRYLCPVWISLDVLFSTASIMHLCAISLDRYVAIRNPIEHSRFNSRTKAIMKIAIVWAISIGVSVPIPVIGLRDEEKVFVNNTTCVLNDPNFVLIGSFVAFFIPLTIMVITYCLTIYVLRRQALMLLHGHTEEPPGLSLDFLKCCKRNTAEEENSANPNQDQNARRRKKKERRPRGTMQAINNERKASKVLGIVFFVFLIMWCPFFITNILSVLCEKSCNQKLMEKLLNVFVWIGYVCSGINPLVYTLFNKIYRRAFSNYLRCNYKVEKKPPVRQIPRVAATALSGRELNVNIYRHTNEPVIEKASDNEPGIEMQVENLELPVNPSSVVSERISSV

CYP2B6 = molecular target: T2, CYP2B6 (Homo sapiens, UniProt P20813); experiment: CYP inhibition; assay type: in vitro ADME
T2 sequence (P20813 1-491): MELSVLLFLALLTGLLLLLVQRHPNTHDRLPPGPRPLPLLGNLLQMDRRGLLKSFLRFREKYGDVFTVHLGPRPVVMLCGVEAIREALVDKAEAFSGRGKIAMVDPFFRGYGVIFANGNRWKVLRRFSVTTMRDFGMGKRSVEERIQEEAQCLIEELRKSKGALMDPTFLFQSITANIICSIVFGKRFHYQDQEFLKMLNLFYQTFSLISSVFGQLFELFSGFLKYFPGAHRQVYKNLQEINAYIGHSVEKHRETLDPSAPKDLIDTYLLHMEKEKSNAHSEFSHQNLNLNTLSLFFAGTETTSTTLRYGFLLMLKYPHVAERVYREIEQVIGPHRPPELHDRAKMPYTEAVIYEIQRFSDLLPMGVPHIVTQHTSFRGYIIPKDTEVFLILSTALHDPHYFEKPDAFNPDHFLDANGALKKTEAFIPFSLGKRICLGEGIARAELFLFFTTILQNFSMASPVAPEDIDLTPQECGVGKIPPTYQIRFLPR

[2] = test system: Eurofins safety screen panel; settings: at 10 μM
CYP3A4 = CYP3A4 (Homo sapiens, UniProt P08684)
Chain of CYP3A4 (P08684 whole entry): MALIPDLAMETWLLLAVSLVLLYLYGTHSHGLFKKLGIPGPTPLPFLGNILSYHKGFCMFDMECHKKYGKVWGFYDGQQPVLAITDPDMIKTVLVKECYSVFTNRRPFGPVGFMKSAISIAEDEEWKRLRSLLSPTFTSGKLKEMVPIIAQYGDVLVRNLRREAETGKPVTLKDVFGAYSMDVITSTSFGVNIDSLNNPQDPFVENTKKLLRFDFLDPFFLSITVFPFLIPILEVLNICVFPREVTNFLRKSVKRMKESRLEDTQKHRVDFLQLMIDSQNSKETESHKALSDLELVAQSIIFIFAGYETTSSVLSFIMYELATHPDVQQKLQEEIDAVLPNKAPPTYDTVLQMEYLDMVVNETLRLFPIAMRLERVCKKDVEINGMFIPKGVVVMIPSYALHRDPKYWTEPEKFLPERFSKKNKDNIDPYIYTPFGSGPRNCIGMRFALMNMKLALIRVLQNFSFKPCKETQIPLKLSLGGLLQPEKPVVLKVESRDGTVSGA

CYP2D6 = CYP2D6 (Homo sapiens, UniProt P10635)
Chain of CYP2D6 (P10635 whole entry): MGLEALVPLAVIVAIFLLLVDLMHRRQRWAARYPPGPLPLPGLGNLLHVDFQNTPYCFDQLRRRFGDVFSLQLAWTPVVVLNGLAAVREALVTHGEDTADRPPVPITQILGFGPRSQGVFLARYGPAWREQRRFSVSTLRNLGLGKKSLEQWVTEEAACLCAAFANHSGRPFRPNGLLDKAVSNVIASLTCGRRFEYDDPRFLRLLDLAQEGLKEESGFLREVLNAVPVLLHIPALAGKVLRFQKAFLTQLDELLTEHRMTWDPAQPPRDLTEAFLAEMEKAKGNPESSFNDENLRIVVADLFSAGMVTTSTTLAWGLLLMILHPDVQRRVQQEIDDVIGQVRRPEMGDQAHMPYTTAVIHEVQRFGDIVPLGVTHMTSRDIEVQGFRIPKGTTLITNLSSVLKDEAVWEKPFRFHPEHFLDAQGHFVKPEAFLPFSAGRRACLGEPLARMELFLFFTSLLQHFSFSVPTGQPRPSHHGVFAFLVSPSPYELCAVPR

CYP2C8 = molecular target: T3, CYP2C8 (Homo sapiens, UniProt P10632)
T3 sequence (P10632 1-490): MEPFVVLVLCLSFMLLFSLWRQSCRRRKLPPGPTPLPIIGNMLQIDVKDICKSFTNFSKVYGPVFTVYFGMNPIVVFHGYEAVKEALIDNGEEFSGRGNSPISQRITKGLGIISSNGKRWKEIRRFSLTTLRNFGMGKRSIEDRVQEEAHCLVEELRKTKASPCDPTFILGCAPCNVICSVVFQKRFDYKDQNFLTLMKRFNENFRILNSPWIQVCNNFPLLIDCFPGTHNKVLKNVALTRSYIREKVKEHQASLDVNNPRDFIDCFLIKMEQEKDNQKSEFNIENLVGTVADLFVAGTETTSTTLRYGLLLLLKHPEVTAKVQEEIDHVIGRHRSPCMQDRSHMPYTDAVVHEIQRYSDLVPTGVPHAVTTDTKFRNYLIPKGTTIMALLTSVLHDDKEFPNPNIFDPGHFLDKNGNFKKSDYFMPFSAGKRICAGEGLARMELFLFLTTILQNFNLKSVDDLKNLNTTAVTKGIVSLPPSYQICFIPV

CYP2C9 = CYP2C9 (Homo sapiens, UniProt P11712)
Chain of CYP2C9 (P11712 whole entry): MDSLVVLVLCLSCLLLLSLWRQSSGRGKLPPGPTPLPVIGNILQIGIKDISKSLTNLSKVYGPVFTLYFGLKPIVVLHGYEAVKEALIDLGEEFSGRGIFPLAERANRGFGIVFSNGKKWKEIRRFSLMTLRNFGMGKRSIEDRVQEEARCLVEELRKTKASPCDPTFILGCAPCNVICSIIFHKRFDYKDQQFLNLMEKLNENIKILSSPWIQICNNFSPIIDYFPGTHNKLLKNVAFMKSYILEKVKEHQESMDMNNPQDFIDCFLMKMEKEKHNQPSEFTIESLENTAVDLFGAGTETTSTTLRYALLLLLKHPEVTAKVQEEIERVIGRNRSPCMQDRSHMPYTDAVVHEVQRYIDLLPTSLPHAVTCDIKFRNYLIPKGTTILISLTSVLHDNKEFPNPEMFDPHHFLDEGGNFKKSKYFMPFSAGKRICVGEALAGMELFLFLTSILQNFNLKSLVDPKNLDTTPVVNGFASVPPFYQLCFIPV

CYP2C19 = CYP2C19 (Homo sapiens, UniProt P33261)
Chain of CYP2C19 (P33261 whole entry): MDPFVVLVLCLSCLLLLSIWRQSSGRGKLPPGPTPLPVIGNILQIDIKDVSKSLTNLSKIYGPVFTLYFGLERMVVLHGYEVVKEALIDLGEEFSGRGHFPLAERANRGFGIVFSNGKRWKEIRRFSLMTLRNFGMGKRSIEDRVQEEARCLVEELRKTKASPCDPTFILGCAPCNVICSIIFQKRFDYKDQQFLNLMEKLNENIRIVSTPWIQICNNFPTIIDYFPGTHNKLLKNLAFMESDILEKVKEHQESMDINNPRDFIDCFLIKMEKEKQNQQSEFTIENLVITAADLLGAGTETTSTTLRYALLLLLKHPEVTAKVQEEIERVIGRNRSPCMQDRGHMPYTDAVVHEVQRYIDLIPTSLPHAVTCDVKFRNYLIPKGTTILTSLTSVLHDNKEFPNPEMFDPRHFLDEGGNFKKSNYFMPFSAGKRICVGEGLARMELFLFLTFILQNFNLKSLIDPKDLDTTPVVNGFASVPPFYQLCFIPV

CYP1A2 = molecular target: T4, CYP1A2 (Homo sapiens, UniProt P05177)
T4 sequence (P05177 1-516): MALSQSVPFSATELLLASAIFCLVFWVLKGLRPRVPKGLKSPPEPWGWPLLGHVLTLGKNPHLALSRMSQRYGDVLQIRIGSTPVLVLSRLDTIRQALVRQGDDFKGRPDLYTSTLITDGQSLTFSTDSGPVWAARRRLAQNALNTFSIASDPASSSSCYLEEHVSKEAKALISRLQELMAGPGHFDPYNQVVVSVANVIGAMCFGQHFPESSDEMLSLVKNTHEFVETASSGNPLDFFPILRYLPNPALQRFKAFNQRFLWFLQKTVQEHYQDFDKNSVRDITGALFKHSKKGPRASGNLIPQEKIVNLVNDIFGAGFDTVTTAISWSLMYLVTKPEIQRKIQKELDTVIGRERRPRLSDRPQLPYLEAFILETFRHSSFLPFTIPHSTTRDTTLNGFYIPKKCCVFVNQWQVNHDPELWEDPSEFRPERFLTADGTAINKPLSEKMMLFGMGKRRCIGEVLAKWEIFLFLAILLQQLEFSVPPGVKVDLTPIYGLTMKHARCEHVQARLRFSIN

in vivo = settings: cynomolgus monkey, iv, 2 mg/kg
major CYP enzymes = experiment: CYP time-dependent inhibition
[3] = Dynamic moisture sorption test; assay type: physicochemical; settings: 90% relative humidity, 25 °C

Q: Which Papp A→B (P-gp) does the source give for `CNC(=O)c1ccc2c3c1C(CC(F)(F)F)CN3CCNC2` (single isomer, unassigned; (+)) [(+)-19a] here?
A: Its Papp A→B is 14.8 ×10⁻⁶ cm/s.

Q: For `CCCNC(=O)c1ccc2c3c1C(CC(F)(F)F)CN3CCNC2` (single isomer, unassigned; (+)) [(+)-19c], which “Inhibition of Food Intake at 1 h (%) with 10 mg/kg po” value (fasted rat; 10 mg/kg PO) is on record?
A: The value was 53 ^c %.

Q: For `CCC1CN2CCNCc3ccc(C(=O)NC)c1c32` (single isomer, unassigned; (+)) [(+)-19i], which Papp A→B (P-gp) is on record?
A: Its Papp A→B is 7.73 ×10⁻⁶ cm/s.

Q: With `CCC1CN2CCNCc3ccc(C(=O)NCC(F)F)c1c32` (single isomer, unassigned; (+)) [(+)-19k, (+)-N-(2,2-Difluoroethyl)-7-ethyl-1,2,3,4,6,7-hexahydro-[1,4]diazepino[6,7,1-hi]indole-8-carboxamide] as the compound, how does the “Inhibition of Food Intake at 1 h (%), 5 mg/kg dose” value (fasted rat) read?
A: Its value is 27 ^d %.

Q: And the Papp A→B (P-gp)?
A: Its Papp A→B is 12.8 ×10⁻⁶ cm/s.

Q: And the efflux ratio (P-gp)?
A: Its efflux ratio is 2.16.

Q: For `CNC(=O)c1ccc2c3c1CCN3CCNC2` [7b, N-Methyl-1,2,3,4,6,7-hexahydro-[1,4]diazepino[6,7,1-hi]indole-8-carboxamide], which “Hypophagic effect after preadministration of 5-HT2CR antagonist SB242084” value (fasted rat; 10 mg/kg po, 1 h, SB242084 1 mg/kg PO) is on record?
A: Its value is “blocked”.

Q: What about the “Predicted half-life in human by allometric scaling” value [1] of the same compound?
A: The value was 3 h.

Q: With `CSCCNC(=O)c1ccc2c3c1CCN3CCNC2` [7j, N-(2-(Methylthio)ethyl)-1,2,3,4,6,7-hexahydro-[1,4]diazepino[6,7,1-hi]indole-8-carboxamide] as the compound, how does the “Selectivity for 5-HT2CR over 5-HT2AR and 5-HT2BR in binding assays” value (5-HT2CR) read?
A: The value was over 500 fold.

Q: For `O=C(NCCOc1ccccc1)c1ccc2c3c1CCN3CCNC2` [7p, N-(2-Phenoxyethyl)-1,2,3,4,6,7-hexahydro-[1,4]diazepino[6,7,1-hi]indole-8-carboxamide], which “Selectivity for 5-HT2CR over 5-HT2AR and 5-HT2BR in binding assays” value (5-HT2CR; 125I-DOI binding assay) is on record?
A: The value was about 100 fold.

Q: For `C[C@H]1CN2CCNCc3ccc(C(=O)NCC(F)F)c1c32` [(+)-19m, (+)-N-(2,2-Difluoroethyl)-7-methyl-1,2,3,4,6,7-hexahydro-[1,4]diazepino[6,7,1-hi]indole-8-carboxamide], which “Inhibition of Food Intake at 1 h (%), 5 mg/kg dose” value (fasted rat) is on record?
A: Its value is 81 ^d %.

Q: What about the Papp A→B (P-gp) of the same compound?
A: The Papp A→B was 8.9 ×10⁻⁶ cm/s.

Q: And the IC50 (CYP2B6)?
A: The IC50 was over 30 µM.

Q: And the “Binding against >140 target Eurofins safety screen panel” value [2]?
A: Its value is under 25%.

Q: What about the IC50 (CYP3A4) of the same compound?
A: The IC50 was over 30 µM.

Q: What about the IC50 (CYP2D6) of the same compound?
A: Its IC50 is over 30 µM.

Q: And the IC50 (CYP2C8)?
A: The IC50 was over 30 µM.

Q: And the IC50 (CYP2C9)?
A: The IC50 was over 30 µM.

Q: And the IC50 (CYP2C19)?
A: The IC50 was over 30 µM.

Q: And the IC50 (CYP1A2)?
A: The IC50 was over 30 µM.

Q: What about the Rat brain protein-binding of the same compound?
A: Its Rat brain protein-binding is 53%.

Q: And the “Predicted half-life in human by allometric scaling” value [1]?
A: The value was “approximately 7 h”.

Q: What about the CL renal (in vivo) of the same compound?
A: Its CL renal is 1.8 mL/h/kg.

Q: And the CYP time-dependent inhibition (major CYP enzymes)?
A: Its CYP time-dependent inhibition is “no time-dependent inhibition”.

Q: With `C[C@H]1CN2CCNCc3ccc(C(=O)NCC(F)F)c1c32.Cl` [(+)-19m. HCl] as the compound, how does the “Weight gain in dynamic moisture sorption test” value [3] read?
A: Its value is under 0.1%.
